Reference: patent US20120053148A1, “INHIBITORS OF HEPATITIS C VIRUS” (GILEAD SCIENCES, INC., priority 2010, published 2012)

The compounds below were run on HCV Replicon IB (assay: HCV replicon assay in Huh-7 cells, genotype 1b (Rluc luciferase readout)). Conditions: HCV1B replicon, Huh-7 cells, 3 days; read-out: EC50_HCV1B_.
Format: cell-based, hepatitis C virus

Row | Structure (SMILES) | EC50 [nM]
1 | CC(C)(C)c1cc(C2CC2)cc2c(N)cc(C(=O)NCC3CS(=O)(=O)CCN3)nc12 (centres unmarked) [Compound 324] | 3.63
2 | CC(C)(C)c1cc(C2CC2)cc2c(N)cc(C(=O)NCC3CS(=O)(=O)CCN3)nc12 (centres unmarked) [Compound 334] | 1.71
3 | Cc1cc(-c2nnc(NCC[C@H](C)O)s2)nc2c(C(C)(C)C)cc(C3CC3)cc12 [Compound 403] | 6.52
4 | Cc1cc(-c2nnc(N[C@H]3C[C@](O)(CO)C3)o2)nc2c(C(C)(C)C)cc(C3CC3)cc12 [Compound 513] | 8.11

Same assay, conditions: Hepatitis C virus, 72 h; 10 uM; 1b-Rluc replicon, Huh-7 cells, 3 days; read-out: Inhibition @ 10 uM in 1b-Rluc

Row | Structure (SMILES) | inhibition at 10 µM [%]
5 | Cc1cc(C(=O)NCc2ccccn2)nc2c(C(F)(F)F)cc(C3(C)CC3)cc12 [Compound 138] | 99
6 | Cc1cc(C(F)(F)F)c2nc(C(=O)NCc3ccccn3)cc(C)c2c1 [Compound 143] | 93.7
7 | Cc1cc(C(=O)NCc2ccccn2)nc2c(C(F)(F)F)cc(C#CC3CC3)cc12 [Compound 147] | 94.1
8 | CCCC(=O)Nc1nnc(-c2cc(C)c3cc(C4CC4)cc(C(F)(F)F)c3n2)o1 [Compound 262] | 99.7
9 | Cc1cc(-c2nnc(NCCCCCO)s2)nc2c(C(F)(F)F)cc(C3CC3)cc12 [Compound 291] | 99.1
10 | Cc1cc(-c2nnc(NCCCO)s2)nc2c(C(F)(F)F)cc(C3CC3)cc12 [Compound 286] | 99.9
11 | CC(C)(C)c1cc(C2CC2)cc2c(N)cc(C(=O)NCc3ccccn3)nc12 [Compound 230] | 100
12 | Cc1cc(-c2nnc(NCc3ncc[nH]3)o2)nc2c(C(F)(F)F)cc(C3CC3)cc12 [Compound 257] | 99.7
13 | Cc1cc(C(=O)NCc2ccccn2)nc2c(C(F)(F)F)cc(C3=CCCC3)cc12 [Compound 149] | 99.4
14 | Cc1cc(C(=O)NC[C@@H]2CC(F)(F)CCN2)nc2c(C(F)(F)F)cc(C3CC3)cc12 [Compound 132] | 100
15 | CCOCCOCCOCCCNc1nnc(-c2cc(C)c3cc(C4CC4)cc(C(F)(F)F)c3n2)s1 [Compound 293] | 96
16 | Cc1cc(-c2nnc(NCC(C)(C)CO)s2)nc2c(C(F)(F)F)cc(C3CC3)cc12 [Compound 304] | 96.2
17 | Cc1cc(-c2nnc(NC[C@@H](O)CO)s2)nc2c(C(F)(F)F)cc(C3CC3)cc12 [Compound 303] | 98.2
18 | Cc1cc(C(=O)NCC2CCCCN2C(=O)OC(C)(C)C)nc2c(C(F)(F)F)cc(C3CC3)cc12 (centres unmarked) [Compound 107] | 94.5
19 | O=C(NCC1COCCN1)c1cc(O)c2cc(C3CC3)cc(C(F)(F)F)c2n1 (centres unmarked) [Compound 217] | 77
20 | COCCNC(=O)CNC(=O)c1cc(C)c2cc(C3CC3)cc(C(F)(F)F)c2n1 [Compound 117] | 94.7
21 | Cc1cc(-c2nnc(NCCS(=O)(=O)N(C)C)o2)nc2c(C(F)(F)F)cc(C3CC3)cc12 [Compound 270] | 84.7
22 | Cc1cc(C(=O)N/C=C/Cc2ccccc2)nc2c(C(F)(F)F)cc(-c3ccccc3)cc12 [Compound 171] | 92.5
23 | Cc1cc(-c2nnc(NCCCOP(=O)(O)O)s2)nc2c(C(F)(F)F)cc(C3CC3)cc12 [Compound 287] | 99.9

Row | Structure (SMILES) | inhibition at 10 µM [%]
24 | Cc1cc(C(=O)NC2CNC(C)(C)COC2)nc2c(C(F)(F)F)cc(C3CC3)cc12 (centres unmarked) [Compound 134] | 93.1
25 | Cc1cc(C(=O)NC[C@@H]2CC(F)(F)CCN2)nc2c(C(F)(F)F)cc(OC(F)F)cc12 (single isomer, unassigned) [Compound 202] | 99.5
26 | Cc1cc(-c2nnc(NCC3(C#N)CC3)o2)nc2c(C(F)(F)F)cc(C3CC3)cc12 [Compound 268] | 99.4
27 | Cc1cc(C(=O)NCc2cc(CN3CCOCC3)ccn2)nc2c(C(F)(F)F)cc(C3CC3)cc12 [Compound 130] | 84.7
28 | Cc1cc(C(=O)NCC2(O)CC2)nc2c(C(F)(F)F)cc(C3CC3)cc12 [Compound 97] | 98.8
29 | Cc1cc(-c2nnc(NC(C)(C)CO)o2)nc2c(C(F)(F)F)cc(C3CC3)cc12 [Compound 261] | 99.2
30 | CNCCCNc1nnc(-c2cc(C)c3cc(C4CC4)cc(C(F)(F)F)c3n2)s1 [Compound 300] | 97.9
31 | Cc1cc(C(=O)NCC2OCCO2)nc2c(C(F)(F)F)cc(C3CC3)cc12 [Compound 96] | 99.9
32 | Cc1cc(-c2nnc(NCCCS(C)(=O)=O)o2)nc2c(C(F)(F)F)cc(C3CC3)cc12 [Compound 269] | 87.4
33 | Cc1cc(-c2nnc(NCC3COCCN3)o2)nc2c(C(F)(F)F)cc(C3CC3)cc12 (centres unmarked) [Compound 252] | 92.7
34 | Cc1cc(-c2nnc(N)o2)nc2c(C(F)(F)F)cc(C3CC3)cc12 [Compound 243] | 88.4
35 | Cc1cc(C(=O)NCC(C)(C)C#N)nc2c(C(F)(F)F)cc(-c3ccccc3)cc12 [Compound 162] | 80.5
36 | CC(C)(C)c1cc(C2CC2)cc2c(O)cc(C(=O)NCc3ccccn3)nc12 [Compound 227] | 100
37 | COCCCNC(=O)c1cc(C)c2cc(C3CC3)cc(C(F)(F)F)c2n1 [Compound 120] | 99.8
38 | Nc1cc(C(=O)NCC2COCCN2)nc2c(C(F)(F)F)cc(C3CC3)cc12 (centres unmarked) [Compound 218] | 99.9
39 | Cc1cc(-c2nnc(NCC(=O)N(C)C)o2)nc2c(C(C)(C)C)cc(C3CC3)cc12 [Compound 281] | 99.8
40 | Cc1cc(-c2nnc(NCCCS(N)(=O)=O)o2)nc2c(C(F)(F)F)cc(C3CC3)cc12 [Compound 267] | 97.7
41 | CC(=O)N(C)c1cc(C(F)(F)F)c2nc(C(=O)NCc3ccccn3)cc(C)c2c1 [Compound 180] | 65.5

Same assay, conditions: Hepatitis C virus, Huh-7, 72 h, HCV1B replicon, Huh-7 cells, 3 days; read-out: EC50_HCV1B_

Row | Structure (SMILES) | EC50 [nM]
42 | CC(C)(C)c1cc(C2CC2)cc2c(N)cc(-c3nnc(NCC4CCCCO4)o3)nc12 (centres unmarked) [Compound 354] | 15.3
43 | Cc1cc(-c2nnc(N[C@H]3C[C@](O)(CF)C3)o2)nc2c(C(C)(C)C)cc(OCC(F)(F)F)cc12 [Compound 467] | 0.63
44 | Cc1cc(-c2nnc(NC3CS(=O)(=O)C3)o2)nc2c(C(C)(C)C)cc(OCC(F)(F)F)cc12 [Compound 506] | 62.5
45 | CC[C@@]1(O)CN[C@H](CNC(=O)c2cc(C)c3cc(C4CC4)cc(C(C)(C)C)c3n2)C1 [Compound 430] | 1450
46 | CO[C@@H]1CNC(CNc2nnc(-c3cc(C)c4cc(C5CC5)cc(C(F)(F)F)c4n3)s2)C1 (some centres unmarked) [Compound 311] | 1140
47 | Cc1cc(C(=O)NC[C@@H]2CS(=O)(=O)CCN2)nc2c(C(C)(C)C)cc(OCC(F)(F)F)cc12 [Compound 509] | 3.61
48 | Cc1cc(-c2nnc(Nc3ccccn3)o2)nc2c(C(C)(C)C)cc(OCC(F)(F)F)cc12 [Compound 458] | 0.83
49 | CC(C)(C)c1cc(C2CC2)cc2c(N)cc(C(=O)NC[C@@H]3CSCN3)nc12 [Compound 336] | 4.45
50 | CC(C)(C)c1cc(C2CC2)cc2c(N)nc(C(=O)NCc3ncccn3)nc12 [Compound 433] | 1.19
51 | Cc1cc(-c2nnc(Nc3cccnc3)o2)nc2c(C(C)(C)C)cc(OCC(F)(F)F)cc12 [Compound 457] | 4.1
52 | CO[C@@H]1CN[C@@H](CNC(=O)c2cc(N)c3cc(C4CC4)cc(C(C)(C)C)c3n2)C1 [Compound 329] | 9.8
53 | Cc1cc(OC(F)(F)F)c2nc(C(=O)NCc3ncccn3)cc(C)c2c1 [Compound 446] | 523
54 | Cc1cc(-c2nnc(N[C@H]3C[C@](O)(CF)C3)o2)nc2c(C(C)(C)C)cc(OCCF)cc12 [Compound 529] | 1.37
55 | Cc1cc(-c2nnc(NCCC(C)(C)O)o2)nc2c(C(C)(C)C)cc(C3CC3)cc12 [Compound 409] | 9.43
56 | CC(C)(C)c1cc(C2CC2)cc2c(N)cc(C(=O)NCc3ccon3)nc12 [Compound 322] | 5.38
57 | CCC(O)CNC(=O)c1cc(N)c2cc(C3CC3)cc(C(C)(C)C)c2n1 (centres unmarked) [Compound 326] | 13.8
58 | CC(C)(C)c1cc(C2CC2)cc2c(N)cc(-c3nnc(NCCCO)s3)nc12 [Compound 384] | 3.66
59 | CCCCNc1nnc(-c2cc(Cl)c3cc(C4CC4)cc(C(C)(C)C)c3n2)s1 [Compound 378] | 48.9
60 | Cc1cc(-c2nnc(NCC[C@@H](C)O)s2)nc2c(C(C)(C)C)cc(C3CC3)cc12 [Compound 386] | 1.14
61 | CC(C)(C)c1cc(OCC(F)(F)F)cc2c(Cl)cc(-c3nnc(NCC4OCCO4)o3)nc12 [Compound 522] | 5.85
62 | Cc1cc(-c2nnc(NCC3COC3)o2)nc2c(C(C)(C)C)cc(OCC(F)(F)F)cc12 [Compound 485] | 1050
63 | Cc1cc(-c2nnc(NC3COC3)o2)nc2c(C(C)(C)C)cc(OCC(F)(F)F)cc12 [Compound 487] | 41.5
64 | Cc1cc(-c2nnc(NCC3CSCCN3)s2)nc2c(C(F)(F)F)cc(C3CC3)cc12 (centres unmarked) [Compound 312] | 2120
65 | Cc1cc(-c2nnc(NCCCS(N)(=O)=O)o2)nc2c(C(C)(C)C)cc(C3CC3)cc12 [Compound 393] | 1200
66 | Cc1cc(-c2nnc(NCCCO)s2)nc2c(C(C)(C)C)cc(C3CC3)cc12 [Compound 380] | 12.7
67 | Cc1cc(-c2nnc(NCCCS(N)(=O)=O)s2)nc2c(C(F)(F)F)cc(C3CC3)cc12 [Compound 309] | 7090
68 | Cc1cc(-c2nnc(NCC3CNC(=O)O3)o2)nc2c(C(C)(C)C)cc(C3CC3)cc12 (centres unmarked) [Compound 419] | 43.9
69 | CO[C@@H]1CNC(CNC(=O)c2cc(C)c3cc(C4CC4)cc(OC(F)(F)F)c3n2)C1 (some centres unmarked) [Compound 438] | 46

Same assay, conditions: Hepatitis C virus, Huh-7, 72 h; read-out: EC50_HCV1B_

Row | Structure (SMILES) | EC50 [nM]
70 | Cc1cc(-c2nnc(NCC3OCCO3)o2)nc2c(C(C)(C)C)cc(OCC3CC3)cc12 [Compound 532] | 41.2
71 | Cc1cc(-c2nnc(N[C@H]3C[C@@H](O)C3)o2)nc2c(C(C)(C)C)cc(OCC(C)C)cc12 [Compound 534] | 154
72 | CCOP(=O)(CNc1nnc(-c2cc(C)c3cc(OCC(F)(F)F)cc(C(C)(C)C)c3n2)o1)OCC [Compound 460] | 388

Same assay, conditions: Hepatitis C virus, Huh-7, 72 h; read-out: Inhibition @ 10 uM in 1b-Rluc

Row | Structure (SMILES) | inhibition at 10 µM [%]
73 | C=Cc1cc(C(F)(F)F)c2nc(C(=O)NCc3ccccn3)cc(C)c2c1 [Compound 152] | 99.9
74 | Cc1cc(-c2nnc(Nc3cccc(F)c3)o2)nc2c(C(F)(F)F)cc(C3CC3)cc12 [Compound 271] | 100
